Reference: US9763909B2, “Methods for treating inflammation and pain” (Olatec Therapeutics LLC, priority 2012, dated 2017)

Legend:
IL-6 = assay: Inhibition of IL-6 secretion in LPS-stimulated PBMCs; type: cell-based; conditions: Homo sapiens, PBMC; PBMCs stimulated with LPS (50 pg/mL); read-out: EC50 for inhibiting IL-6
Procedure: (§1) Objective: Test 3-(methylsulfonyl)acrylonitrile for inhibition of cytokine secretion in peripheral blood mononuclear cells (PBMCs) stimulated with lipopolysaccharide (LPS).
(§2) Cytokines: IL-1β, IL-6, TNFα
(§3) Test Compound Dose Concentrations: 50, 10, 5, 1, 0.5, 0.1 μM
(§4) Cells negative control: Vehicle only/No LPS
(§5) Positive control: Dexamethasone (100 nM, n=2)
(§6) 1. Microtiter plates were seeded with 1×10^4 PBMCs/well in […], culture medium (RPMI 1640, 10% FBS, 1% Pen/Strep, 2 mM L-Alanyl-L-glutamine)
(§7) 2. The plates were incubated at 37° C. in 5% CO2 for 1 hour.
(§8) 3. 10 μL of test compound (at different concentrations), dexamethasone, and vehicle controls were added to appropriate wells, and the plates were incubated at 37° C. in 5% CO2 for 1 hour.
(§9) 4. 40 μL of LPS (50 pg/mL final) were added and the plates were incubated at 37° C. in 5% CO2 for 1 hour.
(§10) 5. The plates were centrifuged at 1000 rpm for 10 minutes and supernatants were collected.
(§11) 6. The supernatants were assayed for IL-1β, IL-6, TNFα levels using the Luminex Bead kit.
(§12) 7. EC50 values were determined.

IL-1β = assay: Inhibition of IL-1β secretion in LPS-stimulated PBMCs; type: cell-based; conditions: Homo sapiens, PBMC; PBMCs stimulated with LPS (50 pg/mL); read-out: EC50 for inhibiting IL-1β
Procedure: as §1, §2, §3, §4, §5, §6, §7, §8, §9, §10, §11, §12

[1] = system: arachidonic acid induced ear swelling; assay: Topical arachidonic acid induced ear swelling model, oral administration; type: in vivo, mice; conditions: for % Inhibition: ear swelling at 60 minutes
Procedure: The test compound, dexamethasone (positive control), and vehicle were orally administered to mice and evaluated for anti-inflammatory activity in the topical arachidonic acid induced ear swelling model in mice. […] All animals were maintained in a controlled temperature (22-24° C.) and humidity (60%-70%) environment with 12-hour light/dark cycles for at least one week prior to use. Arachidonic acid (0.5 mg in 20 μL acetone) was applied topically onto the anterior and posterior surfaces of the right ear of test animals to induce inflammation. […] At 60 minutes after arachidonic acid induction of ear edema, the thickness of the right ear and the left ear was measured and the difference calculated as an indication of the inflammation in the right ear.

tail-flick latency = assay: Tail-flick latency (52° C. water bath), potentiation of morphine analgesia; type: in vivo, mice
Procedure: The response of the mice to nociceptive stimuli was evaluated using the time of tail-flick or tail-flick latency from 52° C. water bath. Briefly, the animal was placed in a restrainer with its tail outside. The tail (distal ⅓rd) was immersed into 52° C. water and the time for the mouse to flick its tail out of the water was recorded. The maximum exposure permitted was 10 seconds. If there was no response within 10 seconds, the animal tail was removed from the water to prevent damage to the tail. Baseline data were collected using the tail flick procedure 2 times over 1 hour, prior to any drug administration. The last baseline response data point was used as basal tail flick latency.
3-(methylsulfonyl)acrylonitrile was dissolved in 0.5% methyl cellulose (MC) to 2 mg/mL, and orally administered to mice (n=5) in a volume of 10 ml/kg (20 mg/kg), 1 hour prior to morphine dosing. One mL plastic disposal tuberculin syringes (Becton Dickinson & Co. Franklin Lakes, N.J.) and 20 gauge×38 mm flexible plastic feeding tubes (Instech Laboratories, Plymouth Meeting, Pa.) were used for oral drug administration. Morphine at 5 mg/kg in saline was subcutaneously administered to mice at time zero.
Tail flick measurements were made at 5, 15, 30, 45, 60, and 75 minutes post-morphine administration.
Statistical evaluation was done using an appropriate analysis of variance (ANOVA) using tail flick latencies. […] Analysis with p-values <0.05 is considered significant.

TNFα = assay: Inhibition of TNFα secretion in LPS-stimulated PBMCs; type: cell-based; conditions: Homo sapiens, PBMC; PBMCs stimulated with LPS (50 pg/mL); read-out: EC50 for inhibiting TNFα
Procedure: as §1, §2, §3, §4, §5, §6, §7, §8, §9, §10, §11, §12

In the case of CS(=O)(=O)C=CC#N [3-(methylsulfonyl)acrylonitrile], the EC50 (IL-6) is reported as 190 nM, the EC50 (IL-1β) is reported as 160 nM and the “% Inhibition” value ([1]; 0.1 mg/kg oral gavage 1 hour before arachidonic acid) is reported as 11%. The “% Inhibition” value ([1]; 0.3 mg/kg oral gavage 1 hour before arachidonic acid) was 11%, the “% Inhibition” value ([1]; 1 mg/kg oral gavage 1 hour before arachidonic acid) was 9% and the “% Inhibition” value ([1]; 3 mg/kg oral gavage 1 hour before arachidonic acid) was 13%. For the same compound, the “% Inhibition” value ([1]; 10 mg/kg oral gavage 1 hour before arachidonic acid) was 26%, the “inhibition in arachidonic acid induced ear swelling (in words)” value ([1]; 10 mg/kg oral, at 60 minutes, vs vehicle, t-test p<0.05) was “significant inhibition” and the “analgesic effect (tail flick), morphine plus compound” value (tail-flick latency; 20 mg/kg oral 1 hour before morphine 5 mg/kg s.c., 75 minutes post dosing) was “strong analgesic effects”. The “latency of tail flick, morphine plus compound vs morphine alone” value (tail-flick latency; 20 mg/kg oral 1 hour before morphine 5 mg/kg s.c., measured at 30, 60, and 75 minutes post morphine dosing) was “increases the latency of tail flick significantly” and the EC50 (TNFα) was 300 nM.
For C[C@@H]1C[C@H]2[C@@H]3CCC4=CC(=O)C=C[C@]4(C)[C@@]3(F)[C@@H](O)C[C@]2(C)[C@@]1(O)C(=O)CO [Dexamethasone, reference compound], the “% Inhibition” value ([1]; 0.3 mg/kg oral gavage 3 hour before arachidonic acid) was 39%.
In the case of CN1CC[C@]23c4c5ccc(O)c4O[C@H]2[C@@H](O)C=C[C@H]3[C@H]1C5 [morphine, reference compound], the “analgesic effect (tail flick), morphine alone” value (tail-flick latency; morphine 5 mg/kg s.c., 75 minutes post dosing) is reported as “no effect”.
